Tests used:
Assay in all cases: normalised viability (% of control), CellTiter-Blue; higher = more viable cells (about 100 = DMSO control)
Conditions in all cases: incubation time: 72 h
[1] = system: CAL-148
Outline: (§1)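 Plates were quality-checked by Z'-factor and normalised to vehicle (100) and a positive kill control (0). The underlying assay incubated breast cancer cell lines for 72 h on 384-well plates with compound, then added 2.5 µl CellTiter-Blue for 2 h at 37 °C and read at 560/590 nm. The value is normalised viability at a single listed concentration of the series.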

[2] = system: HCC1599
Outline: as §1

[3] = system: HCC1143
Outline: as §1

[4] = system: MFM-223
Outline: as §1

[5] = system: MDA-MB-468
Outline: as §1

[6] = system: MDA-MB-453
Outline: as §1

[7] = system: CAL-51
Outline: as §1

[8] = system: DU-4475
Outline: as §1

[9] = system: SK-BR-3
Outline: as §1

[10] = system: HCC1937
Outline: as §1

[11] = system: BT-474
Outline: as §1

[12] = system: MDA-MB-231
Outline: as §1

[13] = system: BT-549
Protocol: (§2)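 DSRT, CellTiter-Blue viability, 72 h incubation. Signal is normalised to DMSO and benzethonium chloride controls. Value is the normalised response at dose 3.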

[14] = system: MDA-MB-436
Protocol: as §2

[15] = system: Hs578T
Protocol: as §2

[16] = system: CAL-148; remark: listed apart in the source
Protocol: as §2

[17] = system: HCC1599; remark: listed apart in the source
Protocol: as §2

[18] = system: HCC1143; remark: listed apart in the source
Protocol: as §2

[19] = system: MFM-223; remark: listed apart in the source
Protocol: as §2

[20] = system: MDA-MB-468; remark: listed apart in the source
Protocol: as §2

[21] = system: MDA-MB-453; remark: listed apart in the source
Protocol: as §2

[22] = system: CAL-85-1
Protocol: as §2

[23] = system: CAL-51; remark: listed apart in the source
Protocol: as §2

[24] = system: CAL-120
Protocol: as §2

[25] = system: DU-4475; remark: listed apart in the source
Protocol: as §2

[26] = system: SK-BR-3; remark: listed apart in the source
Protocol: as §2

[27] = system: HDQ-P1
Protocol: as §2

[28] = system: HCC1937; remark: listed apart in the source
Protocol: as §2

[29] = system: BT-474; remark: listed apart in the source
Protocol: as §2

[30] = system: MDA-MB-231; remark: listed apart in the source
Protocol: as §2

CO[C@@]12[C@H](COC(N)=O)C3=C(C(=O)C(C)=C(N)C3=O)N1C[C@@H]1N[C@@H]12 [Mitomycin C]
Conditions | normalised viability [%]
[1], 3 nM | 97.3
[1], 30 nM | 102
[1], 100 nM | 100
[2], 10 nM | 110
[2], 1000 nM | 73.2
[2], 10000 nM | 14.6
[3], 10 nM | 78.3
[3], 1000 nM | 72.4
[3], 10000 nM | 20.4
[4], 10 nM | 96.9
[4], 1000 nM | 96.2
[4], 10000 nM | 8.74
[5], 10 nM | 95.3
[5], 1000 nM | 78.5
[5], 10000 nM | 8.5
[6], 3 nM | 124
[6], 30 nM | 94.5
[6], 100 nM | 91.4
[7], 3 nM | 119
[7], 30 nM | 118
[7], 100 nM | 107
[8], 3 nM | 105
[8], 30 nM | 83.6
[8], 100 nM | 91
[9], 10 nM | 99.2
[9], 1000 nM | 61.5
[9], 10000 nM | 10.4
[10], 10 nM | 88.4
[10], 1000 nM | 45.4
[10], 10000 nM | 21.6
[11], 10 nM | 112
[11], 1000 nM | 95.5
[11], 10000 nM | 53.7
[12], 10 nM | 108
[12], 1000 nM | 76.1
[12], 10000 nM | 47.3
[13], 100 nM | 74.4
[14], 100 nM | 96.5
[15], 100 nM | 97.1
[16], 10 nM | 101
[17], 100 nM | 108
[18], 100 nM | 83.7
[19], 100 nM | 89.1
[20], 100 nM | 92
[21], 10 nM | 87.6
[22], 10 nM | 104
[23], 10 nM | 108
[24], 100 nM | 93.8
[25], 10 nM | 103
[26], 100 nM | 91.9
[27], 10 nM | 103
[28], 100 nM | 69.2
[29], 100 nM | 127
[30], 100 nM | 107

Cc1cc(Nc2nc(N[C@@H](C)c3ncc(F)cn3)ncc2Cl)[nH]n1 [AZD1480]
Conditions | normalised viability [%]
[1], 0.3 nM | 93.8
[1], 3 nM | 97.4
[1], 10 nM | 99.3
[2], 1 nM | 96
[2], 100 nM | 96.6
[2], 1000 nM | 74.6
[3], 1 nM | 96
[3], 100 nM | 102
[3], 1000 nM | 71.8
[4], 1 nM | 92.1
[4], 100 nM | 60.8
[4], 1000 nM | 46.2
[5], 1 nM | 109
[5], 100 nM | 103
[5], 1000 nM | 84.9
[6], 0.3 nM | 120
[6], 3 nM | 95.6
[6], 10 nM | 110
[7], 0.3 nM | 115
[7], 3 nM | 114
[7], 10 nM | 110
[8], 0.3 nM | 102
[8], 3 nM | 104
[8], 10 nM | 95.8
[9], 1 nM | 108
[9], 100 nM | 126
[9], 1000 nM | 102
[10], 1 nM | 112
[10], 100 nM | 83.9
[10], 1000 nM | 83.4
[11], 1 nM | 137
[11], 100 nM | 108
[11], 1000 nM | 112
[12], 1 nM | 107
[12], 100 nM | 95.5
[12], 1000 nM | 85.7
[13], 10 nM | 94.3
[14], 10 nM | 135
[15], 10 nM | 90.8
[16], 1 nM | 88.9
[17], 10 nM | 109
[18], 10 nM | 87.5
[19], 10 nM | 89.8
[20], 10 nM | 105
[21], 1 nM | 108
[22], 1 nM | 106
[23], 1 nM | 112
[24], 10 nM | 96.9
[25], 1 nM | 98.2
[26], 10 nM | 132
[27], 1 nM | 110
[28], 10 nM | 100
[29], 10 nM | 124
[30], 10 nM | 98.1

From the supplement of paper PMC4862054
